Here are results for three molecules from patent US20100035822A1, “PROLINE-RICH PEPTIDES, PHARMACEUTICAL COMPOSITION, USE OF ONE OR MORE PEPTIDES AND METHOD OF TREATMENT” (priority 2006, published 2010).

Square brackets hold non-standard residues; d marks the D form. Ends that are not written are not given here. pGlu = O=C1CC[C@@H](C(=O)O)N1

In test [1] the target is T1, argininosuccinate synthase (AsS) (Mus musculus, UniProt P16460).
T1 construct: Cytosolic and membrane fractions of the renal extract (100 mg/ml total protein) were applied to separate columns; from tissue; host or cells: Balb-c mouse kidney, cytosolic and membrane fractions
T1 sequence (P16460 1-412): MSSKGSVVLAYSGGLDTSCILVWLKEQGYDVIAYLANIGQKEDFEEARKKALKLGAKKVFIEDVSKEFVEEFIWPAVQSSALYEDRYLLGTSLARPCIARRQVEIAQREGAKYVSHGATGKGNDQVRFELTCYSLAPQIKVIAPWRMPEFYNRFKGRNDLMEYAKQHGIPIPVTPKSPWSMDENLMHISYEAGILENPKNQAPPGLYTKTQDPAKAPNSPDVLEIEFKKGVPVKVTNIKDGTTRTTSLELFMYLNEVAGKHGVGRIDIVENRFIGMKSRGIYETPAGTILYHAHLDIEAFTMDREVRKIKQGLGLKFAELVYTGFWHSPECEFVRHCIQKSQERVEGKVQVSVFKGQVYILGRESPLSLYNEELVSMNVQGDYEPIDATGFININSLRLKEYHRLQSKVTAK
Description: Affinity chromatography of mouse kidney extract on peptide column; identification of the bound protein. In kind it is binding. To be noted: affinity column with SEQ ID NO 7 as ligand; crude mouse kidney extract. The procedure: Starting material were the cytosolic and plasma membrane crude extracts of mouse kidney cells homogenized in the buffer 10 mM Tris-HCl pH 7.5, 25 mM saccharose, 1 mM EDTA, and 1 mM PMSF (cytosolic fraction), or 1% Triton X-100 (plasma membrane fraction). Supernatants were dialyzed in 0.2 M NaHCO3, 0.5 M NaCl, pH 8.3, and separately applied to the affinity chromatography column Hitrap NHS-activated (GE Healthcare) coupled to 5 mg of peptide SEQ ID NO 7.
Preparing affinity columns. Columns were washed three times with 2 ml 1 mM HCl before homogeneous preparations of SEQ ID NO 7 (5 mg in 1 ml 0.2 M NaHCO3, 0.5 M NaCl, pH 8.3) were applied. After 30 min incubation at room temperature, peptides had been coupled, and the column was inactivated with buffer A (0.5 M ethanolamine, 0.5 M NaCl, pH 8.3), and washed with 0.2 M NaHCO3, 0.5 M NaCl, pH 8.3, and stored at 4° C. in 50 mM Na2HPO4, 0.1%, NaN3, pH 7.0. The columns were called HiTrap-SEQ. ID NO 7. […]
Affinity chromatography and analysis of the retained proteins by SDS-PAGE. […] Protein concentration (mg/ml) was determined by the method of Bradford (Bradford, M. M. A rapid and sensitive method for the quantitation of microgram quantities of protein utilizing the principle of protein-dye binding. Anal. Biochem. 72: 248-254, 1976) with the Protein Assay reagent from BioRad. […]

For test [2], the system named is SK-N-AS cells (human neuroblastoma). Briefly: Free intracellular Ca2+ concentration in SK-N-AS cells (fluo-3 AM, confocal microscopy). In kind it is cell-based. Here is the method: In these experiments the variation in free intracellular calcium [Ca^2+]i concentration was measured in SK-N-AS cells (human neuroblastoma, ATCC No. CRL-2137) after addition of 1 μmolar of peptides SEQ ID NO 1 or SEQ ID NO 8, or of 1 μmolar captopril. Cells were kept in DMEM (Dulbecco Modified Medium), supplemented with 10% fetal bovine serum (FBS) and 1% non-essential amino acids, at 5% CO2 atmosphere, at 37° C., and 95% relative humidity. Cells were treated with trypsin, and replicated at adequate cell concentrations.
Measurements of variation in the concentration of free [Ca^2+]i were performed with a confocal microscope LSM 510 (Zeiss, Jena, Germany), as described by Martins et al., (Martins et al., Neuronal differentiation of P19 embryonal carcinoma cells modulates kinin B2 receptor gene expression and function. J. Biol. Chem. 280: 19576-19586, 2005). Approximately 5×10^4 SK-N-AS cells were plated on 60 mm plates 24 hours prior to measurement, and then treated with 4 μM fluo-3 AM (Invitrogen Corporation) in 0.5% DMSO and 0.1% non-ionic surfactant pluronic acid F-127 for 30 minutes at 37° C. Cells were washed with DMEM containing 10% FBS, and transferred to defined medium (5 μg/ml insulin, 30 μg/ml transferrin, 20 μM ethanolamine, 30 nM sodium selenite, 1 μM sodium pyruvate, 1% non-essential amino acids, 1 mM glutamine, 100 μg/ml penicillin, 100 μg/ml streptomycin, 10 mM HEPES pH 7.4 in DMEM). The fluorescent fluo-3 AM was excited at 488 nm, and the fluorescence measured at 526 nm.
Variations in the [Ca^2+]i were measured in non-stimulated cells, and in cells stimulated with peptides SEQ ID NO 1 or SEQ ID NO 8, or with captopril (Sigma Aldrich). Increase of fluorescence was monitored for 2 minutes, and images were acquired in 256×256 pixels every second. At the end of each experiment, 5 μM ionophore (4-Br-A23187) were added, followed by 10 mM EGTA, or 20 μM digitonin to determine maximum and minimum fluorescence, Fmax and Fmin respectively, as described by Grynkiewicz et al., (1985).
Intracellular calcium concentrations [Ca^2+]i, related to fluorescence (F) values obtained after addition of peptides SEQ ID NO 1 or SEQ ID NO 8, were calculated with the equation: [Ca^2+]=Kd(F−Fmin)/(Fmax−F), assuming Kd=450 nM for fluo-3 AM (Hallett et al., 1990).

In test [3] the test system is renal nitric oxide synthase (NOS). Briefly: Activation of kidney NOS in mice (3H-arginine to 3H-citrulline conversion). Type of test: in vivo, mouse. The following applies: HOE 140 10 μg/Kg for 1 hour. Here is the method: Male Swiss albinos weighing 22-25 g were injected intraperitoneally with: (1) 50 μl 0.9% NaCl (basal level control), or with 0.9% NaCl supplemented with LPS (2 mg/Kg) (positive control); (2) SEQ ID NO 8 (0.21, 0.91, and 3.47 mg/Kg); (3) SEQ ID NO 8 (0.91 mg/Kg) injected into animals pre-treated via intraperitoneally with L-NAME (3 mg/Kg for 1 h); (4) SEQ ID NO 8 (0.91 mg/Kg) injected into animals pre-treated via intraperitoneally with HOE140 (10 μg/Kg for 1 h); (5) captopril (0.21, 0.91, and 3.47 mg/Kg). After 5, 15, 30, 60, 120, and 180 min, animals were killed, their kidneys removed and stored at −70° C. Animals of group 3 and 4 were killed 30 minutes after administration of the oligopeptide.
NOS activity was measured according to Bredt and Snyder [Bredt D S and Snyder S H. Isolation of nitric oxide synthetase, a calmodulin-requiring enzyme. Proc. Natl. Acad. Sci. USA, 87, 682-685, 1990], and is based on estimating the enzymatic activity of the conversion of L-arginine into L-citrulline using ^3H-arginine as a reference for the conversion.
The kidneys were minced in homogenizing buffer, pH 7.4 (20 mM HEPES, 0.32 M saccharose, 1 mM DTT, 0.1 mM EDTA, 1 mM PMSF), and sonicated. Protein dosage was performed according to Bradford (1976), followed by a chromatography step in a 300 μL Dowex 50WX8-400 column.
For the enzymatic assay, 80 μg total protein from each sample were incubated for 60 minutes at 37° C. in 200 μL buffer (30 mM HEPES, 1 mM EDTA, 1.25 mM CaCl2, 1 mM NADPH, 10 μg/mL calmodulin, 4 μM FAD, 4 μM FMN, 25 μM BH4, 120 nM arginine, 0.5 μCi ^3H-arginine). The reaction was stopped by the addition of 1 ml 20 mM HEPES, and incubation in ice bath. ^3H-citrulline was separated from ^3H-arginine by ion-exchange chromatography in a 300 μL Dowex 50WX8-400 column. Radioactivity of the eluates was measured in a beta-counter. After converting cpm (counts per minute) into dpm (disintegration per minute), the specific activity of the nitric oxide synthase (NOS) was calculated using the following equation: […]

Test [4] addresses T2, argininosuccinate synthase (AsS) (mouse, UniProt P16460 1-412).
T2 sequence: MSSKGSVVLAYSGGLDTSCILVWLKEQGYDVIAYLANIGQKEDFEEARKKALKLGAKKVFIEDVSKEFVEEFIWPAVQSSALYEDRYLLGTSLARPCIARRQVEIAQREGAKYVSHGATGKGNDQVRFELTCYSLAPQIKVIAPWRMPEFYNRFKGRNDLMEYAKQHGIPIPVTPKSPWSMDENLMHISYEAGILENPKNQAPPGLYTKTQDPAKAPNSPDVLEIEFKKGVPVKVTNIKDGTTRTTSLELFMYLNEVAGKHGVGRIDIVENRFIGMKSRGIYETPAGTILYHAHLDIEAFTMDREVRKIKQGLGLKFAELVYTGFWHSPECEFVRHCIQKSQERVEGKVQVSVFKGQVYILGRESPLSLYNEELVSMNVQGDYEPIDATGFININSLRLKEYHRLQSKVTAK
Description: cell-based or functional assay.

For the molecule ENWPHPQIPP [SEQ ID NO 7], in test [1], the “binding to the approx. 46 kDa protein (AsS) of mouse kidney extract” value is reported as “bound”. In test [2], the “time from the peak until the [Ca2+]i plateau” value was determined as 20 s. Also, the “[Ca2+]i response peak” value in test [2] (immediately after addition of the peptide) is approximately 250 nM.

Take HOE 140: the “effect of B2 receptor blockade on the NOS activity increase caused by SEQ ID NO 8” value in test [3] is given as “not able to prevent the increase”.

In the case of [pGlu]NWPHPQIPP [oligopeptide SEQ ID NO 8], the “production rate of phosphate (enzymatic activity of the AsS)” value in test [4] is approximately 2.5 fold.
